IC50 data for 13 compounds are collected here from US20230357162A1, “COMPOUNDS, COMPOSITIONS AND METHODS” (Denali Therapeutics Inc., priority 2020, published 2023).

By IC50 is commonly meant the point on the concentration scale where inhibition reaches its midpoint. A lower IC50 goes with inhibition by little substance.

In the assay the test system is IL-1β secretion, THP-1 cells. As to the kind of experiment: IL-1β secretion assay in PMA-differentiated THP-1 cells stimulated with LPS and nigericin (ELISA readout). The following applies: Homo sapiens, THP-1, inhibition of IL-1β secretion, 25 ng/mL LPS then nigericin. Format: cell-based. The gist of the method:
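THP-1 cells differentiated with 5 ng/mL PMA for 40 h, primed in serum-free medium with 25 ng/mL LPS for 2 h, then compound (0.5% DMSO) for 1 h before nigericin for 2 h at 37°C. Supernatant IL-1β quantified by ELISA; normalized to high (LPS + 5 µM nigericin) and low (LPS only) controls.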
(In general: An ELISA detects its analyte on a solid surface through an enzyme-linked reagent.)

Some results are limits rather than exact numbers.

As to `CC(C)c1nn(CC(=O)NCC2CCOC2)c(=O)c2ccc(Br)cc12` (centres unmarked) [Example 75, 2-(6-bromo-1-oxo-4-propan-2-ylphthalazin-2-yl)-N-(oxolan-3-ylmethyl)acetamide], the IC50 was < 10000 nM (class column of Table 3) and 2850 nM (numeric column of Table 3).

Turning to `O=C(Cn1nc(CF)c2c(F)c(Br)ccc2c1=O)Nc1ncc(F)cn1` [Example 148, 2-[6-bromo-5-fluoro-4-(fluoromethyl)-1-oxophthalazin-2-yl]-N-(5-fluoropyrimidin-2-yl)acetamide], the concentration for half-maximal inhibition (IC50) by setting is: (class column of Table 3) < 10000 nM; (numeric column of Table 3) 97 nM.

In the case of `CC(C)c1nn(CC(=O)Nc2nc(F)ccc2F)c(=O)c2ccc(Br)cc12` [Example 40, 2-(6-bromo-1-oxo-4-propan-2-ylphthalazin-2-yl)-N-(3,6-difluoropyridin-2-yl)acetamide], the IC50 reads like this: (class column of Table 3) < 10000 nM; (numeric column of Table 3) 1060 nM.

For `CC(C)c1nn(CC(=O)Nc2ccc(C(F)(F)F)nc2)c(=O)c2ccc(Br)cc12` [Example 45, 2-(6-bromo-1-oxo-4-propan-2-ylphthalazin-2-yl)-N-[6-(trifluoromethyl)pyridin-3-yl]acetamide], the IC50 runs as follows: (class column of Table 3) < 10000 nM; (numeric column of Table 3) 1190 nM.

With `COCCOc1nn(CC(=O)Nc2ncc(F)cn2)c(=O)c2ccc(Br)cc12` [Example 163], the IC50 runs as follows: (class column of Table 3) < 10000 nM; (numeric column of Table 3) 3770 nM.

As to `CC(C)c1nn(CC(=O)Nc2cncnc2)c(=O)c2ccc(Br)cc12` [Example 56, 2-(6-bromo-1-oxo-4-propan-2-ylphthalazin-2-yl)-N-pyrimidin-5-ylacetamide], the IC50 was < 10000 nM (class column of Table 3) and 3230 nM (numeric column of Table 3).

As for `CC(C)c1nn(CC(=O)Nc2ncncc2F)c(=O)c2ccc(OC(F)(F)F)cc12` [Example 15, N-(5-fluoropyrimidin-4-yl)-2-[1-oxo-4-propan-2-yl-6-(trifluoromethoxy)phthalazin-2-yl]acetamide], the IC50 (class column of Table 3) was < 10000 nM and the IC50 (numeric column of Table 3) came out at 6270 nM.

Regarding `CO[C@H]1C[C@@H](Oc2nn(CC(=O)Nc3ncc(F)cn3)c(=O)c3ccc(Br)cc23)C1` [Example 172, 2-[6-bromo-4-(3-cis-methoxycyclobutyl)oxy-1-oxophthalazin-2-yl]-N-(5-fluoropyrimidin-2-yl)acetamide], the IC50 (class column of Table 3) is < 10000 nM and it took 403 nM to reach half-maximal inhibition (numeric column of Table 3) (IC50).

For `O=C(Cn1nc(OC2CN(CC(F)(F)F)C2)c2cc(Br)ccc2c1=O)Nc1ncc(F)cn1` [Example 170, 2-[6-bromo-1-oxo-4-[1-(2,2,2-trifluoroethyl)azetidin-3-yl]oxyphthalazin-2-yl]-N-(5-fluoropyrimidin-2-yl)acetamide], the IC50 is < 10000 nM (class column of Table 3) and 493 nM (numeric column of Table 3).

Take `CC(C)c1nn(CC(=O)Nc2cccnc2)c(=O)c2ccc(Br)cc12` [Example 55, 2-(6-bromo-1-oxo-4-propan-2-ylphthalazin-2-yl)-N-pyridin-3-ylacetamide]: the IC50 reads like this: (class column of Table 3) < 10000 nM; (numeric column of Table 3) 710 nM.

As for `CC(C)c1nn(CC(=O)Nc2ccnnc2)c(=O)c2ccc(Br)cc12` [Example 121, 2-(6-bromo-1-oxo-4-propan-2-ylphthalazin-2-yl)-N-pyridazin-4-ylacetamide], the IC50 is < 10000 nM (class column of Table 3) and 423 nM (numeric column of Table 3).

Turning to `CC(C)c1nn(CC(=O)Nc2cncc(F)c2)c(=O)c2ccc(Br)cc12` [Example 122, 2-(6-bromo-1-oxo-4-propan-2-ylphthalazin-2-yl)-N-(5-fluoropyridin-3-yl)acetamide], the IC50 is < 10000 nM (class column of Table 3) and 1280 nM (numeric column of Table 3).

Take `CC(C)c1nn(CC(=O)Nc2ncncc2F)c(=O)c2ccc(C(F)F)cc12` [Example 21, 2-[6-(difluoromethyl)-1-oxo-4-propan-2-ylphthalazin-2-yl]-N-(5-fluoropyrimidin-4-yl)acetamide]: the IC50 (class column of Table 3) is < 10000 nM and the IC50 (numeric column of Table 3) turned out to be 1060 nM.
